Measurements from patent publication EP0059645A1, “Method and kit for identification of beta-lactamases” (NATIONAL RESEARCH DEVELOPMENT CORPORATION, priority 1981, dated 1982).
Marks after values point to notes of the source that are not given here.

Tests used:
TEM-2 [1] = molecular target: T1, TEM-2 (Escherichia coli, UniProt P62593, Q37K); assay: Competitive assay with nitrocefin (RSAI); type: biochemical, E. coli 1725E
HMS-1 [2] = assay: Competitive assay with nitrocefin (RSAI); type: biochemical, E. coli 1946
[3] = molecular target: T2, Chromosomal, constitutive beta-lactamase enzyme (Enterobacter cloacae, UniProt P05364); assay: Competitive assay with nitrocefin (RSAI); type: biochemical, E. cloacae
T2 construct: Normally, therefore, the beta-lactamase has to be extracted from the cells for the purpose of the present invention; endogenous in cells

PSE-3 [4] = assay: Competitive assay with nitrocefin (RSAI); type: biochemical, Ps.aerug. 1920E
K10317 = assay: Competitive assay with nitrocefin (RSAI); type: biochemical, K.aerog. 10317
K1073 = assay: Competitive assay with nitrocefin (RSAI); type: biochemical, Klebsiella 1073
K17 = assay: Competitive assay with nitrocefin (RSAI); type: biochemical, Klebsiella 17
TEM-2 beta-lactamase = TEM-2 beta-lactamase (Escherichia coli, UniProt P62593, Q37K); type: biochemical, E. coli C9 RP4; settings: from kinetics of nitrocefin cleavage
TEM-1 [5] = molecular target: T3, TEM-1 (Escherichia coli, UniProt P62593); assay: 6-well visual test with nitrocefin; settings: 3 minutes, room temperature
TEM-2 [6] = molecular target: T1, TEM-2; assay: 6-well visual test with nitrocefin; settings: 3 minutes, room temperature
SHV-1 = SHV-1 (Escherichia coli, UniProt P0AD63); assay: 6-well visual test with nitrocefin; settings: 3 minutes, room temperature
HMS-1 [7] = assay: 6-well visual test with nitrocefin; settings: 3 minutes, room temperature
OXA-1 [8] = molecular target: T4, OXA-1 (Escherichia coli, UniProt P13661); assay: 6-well visual test with nitrocefin; settings: 3 minutes, room temperature
OXA-2 = OXA-2 (Escherichia coli, UniProt P0A1V9); assay: 6-well visual test with nitrocefin; settings: 3 minutes, room temperature
OXA-3 [9] = molecular target: T5, OXA-3 (Pseudomonas aeruginosa, UniProt Q51429); assay: 6-well visual test with nitrocefin; settings: 3 minutes, room temperature
PSE-1 = PSE-1 (Pseudomonas aeruginosa, UniProt Q03170); assay: 6-well visual test with nitrocefin; settings: 3 minutes, room temperature
PSE-2 [10] = molecular target: T6, PSE-2 (Pseudomonas aeruginosa, UniProt P14489); assay: 6-well visual test with nitrocefin; settings: 3 minutes, room temperature
PSE-3 [11] = assay: 6-well visual test with nitrocefin; settings: 3 minutes, room temperature
PSE-4 = PSE-4 (Pseudomonas aeruginosa, UniProt P16897); assay: 6-well visual test with nitrocefin; settings: 3 minutes, room temperature
Ps +AMP (Chromosomal) = Ps +AMP (Chromosomal) (Pseudomonas aeruginosa, UniProt P24735); assay: 6-well visual test with nitrocefin; settings: 3 minutes, room temperature
OXA-3 [12] = molecular target: T5, OXA-3; assay: Competitive assay with nitrocefin (RSAI); type: biochemical, E. coli R57B; parameters: Normally, therefore, the beta-lactamase has to be extracted from the cells for the purpose of the present invention; endogenous in cells
PSE-2 [13] = molecular target: T6, PSE-2; assay: Competitive assay with nitrocefin (RSAI); type: biochemical, Ps.aerug. 1973E; parameters: Normally, therefore, the beta-lactamase has to be extracted from the cells for the purpose of the present invention; endogenous in cells
TEM-1 [14] = molecular target: T3, TEM-1; assay: Competitive assay with nitrocefin (RSAI); type: biochemical, E. coli 2136E; parameters: the beta-lactamase has to be extracted from the cells for the purpose of the present invention; made in house; host or cells: E. coli 2136E (plasmid-bearing strain; crude cell extract)
OXA-1 [15] = molecular target: T4, OXA-1; assay: Competitive assay with nitrocefin (RSAI); type: biochemical, E. coli 1527E; parameters: the beta-lactamase has to be extracted from the cells for the purpose of the present invention; made in house; host or cells: E. coli 1527E according to the earlier reading (crude cell extract)
[16] = molecular target: Chromosomal, hyper-induced beta-lactamase enzyme (Escherichia coli, UniProt P00811); assay: Competitive assay with nitrocefin (RSAI); type: biochemical, E. coli SNU35; parameters: Normally, therefore, the beta-lactamase has to be extracted from the cells for the purpose of the present invention; endogenous in cells; host or cells: E. coli SNU 35 (artificially produced strain)
[17] = well A: Cefoxitin 20:1 to nitrocefin
[18] = well E: Cefoxitin 200:1 to nitrocefin

T4 sequence (P13661 26-276): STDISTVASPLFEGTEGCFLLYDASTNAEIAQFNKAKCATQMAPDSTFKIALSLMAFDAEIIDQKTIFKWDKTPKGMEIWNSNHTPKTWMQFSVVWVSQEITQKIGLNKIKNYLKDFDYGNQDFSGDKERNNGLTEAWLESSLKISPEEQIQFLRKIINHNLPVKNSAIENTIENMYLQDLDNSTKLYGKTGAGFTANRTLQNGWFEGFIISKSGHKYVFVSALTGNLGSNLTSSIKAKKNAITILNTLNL
T5 sequence (Q51429 22-275): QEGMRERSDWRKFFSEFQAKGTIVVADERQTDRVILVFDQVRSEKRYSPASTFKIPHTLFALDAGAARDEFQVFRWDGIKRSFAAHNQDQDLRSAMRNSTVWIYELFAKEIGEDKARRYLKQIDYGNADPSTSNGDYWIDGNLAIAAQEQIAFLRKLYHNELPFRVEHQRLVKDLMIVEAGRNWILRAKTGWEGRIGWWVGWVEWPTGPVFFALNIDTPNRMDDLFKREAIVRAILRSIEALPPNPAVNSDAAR
T6 sequence (P14489 20-266): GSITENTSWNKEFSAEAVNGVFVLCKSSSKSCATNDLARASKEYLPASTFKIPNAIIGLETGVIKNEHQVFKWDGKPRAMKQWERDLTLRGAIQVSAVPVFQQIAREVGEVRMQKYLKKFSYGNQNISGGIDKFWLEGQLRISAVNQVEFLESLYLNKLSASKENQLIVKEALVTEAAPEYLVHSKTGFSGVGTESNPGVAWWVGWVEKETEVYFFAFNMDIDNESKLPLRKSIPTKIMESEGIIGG
Sequence of PSE-4 (P16897 18-288): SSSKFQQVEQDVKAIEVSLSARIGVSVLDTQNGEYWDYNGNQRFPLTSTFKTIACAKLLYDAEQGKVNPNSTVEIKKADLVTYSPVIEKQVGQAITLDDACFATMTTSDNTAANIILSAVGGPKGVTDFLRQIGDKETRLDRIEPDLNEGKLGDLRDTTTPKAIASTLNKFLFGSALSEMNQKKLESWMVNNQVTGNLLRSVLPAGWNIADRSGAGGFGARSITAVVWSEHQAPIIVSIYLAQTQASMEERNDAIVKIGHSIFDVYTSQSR
Sequence of Ps +AMP (Chromosomal) (P24735 27-397): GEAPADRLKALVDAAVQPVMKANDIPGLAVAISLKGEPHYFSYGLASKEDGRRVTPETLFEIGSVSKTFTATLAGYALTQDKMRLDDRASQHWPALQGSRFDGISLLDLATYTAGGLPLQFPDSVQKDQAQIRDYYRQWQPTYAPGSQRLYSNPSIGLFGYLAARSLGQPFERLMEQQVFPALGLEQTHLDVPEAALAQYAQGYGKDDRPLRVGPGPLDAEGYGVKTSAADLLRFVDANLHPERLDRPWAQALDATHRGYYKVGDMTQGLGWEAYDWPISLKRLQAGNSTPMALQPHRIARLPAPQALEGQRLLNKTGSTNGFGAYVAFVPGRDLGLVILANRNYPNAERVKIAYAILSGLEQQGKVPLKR
Sequence of OXA-2 (P0A1V9 22-275): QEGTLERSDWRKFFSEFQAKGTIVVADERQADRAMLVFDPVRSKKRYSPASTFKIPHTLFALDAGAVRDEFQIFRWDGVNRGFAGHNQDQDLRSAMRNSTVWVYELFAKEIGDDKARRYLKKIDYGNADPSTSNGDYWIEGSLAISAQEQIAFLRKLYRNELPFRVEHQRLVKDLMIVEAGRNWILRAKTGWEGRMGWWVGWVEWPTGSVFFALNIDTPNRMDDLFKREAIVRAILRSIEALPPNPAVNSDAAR
Sequence of PSE-1 (Q03170 18-288): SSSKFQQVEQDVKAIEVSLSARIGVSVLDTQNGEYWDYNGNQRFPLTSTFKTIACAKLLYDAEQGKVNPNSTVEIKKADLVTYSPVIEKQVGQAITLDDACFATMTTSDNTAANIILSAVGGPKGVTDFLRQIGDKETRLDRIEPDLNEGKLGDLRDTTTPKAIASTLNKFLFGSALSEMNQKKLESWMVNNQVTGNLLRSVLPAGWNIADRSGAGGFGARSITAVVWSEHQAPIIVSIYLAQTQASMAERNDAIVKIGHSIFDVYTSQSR
Sequence of SHV-1 (P0AD63 22-286): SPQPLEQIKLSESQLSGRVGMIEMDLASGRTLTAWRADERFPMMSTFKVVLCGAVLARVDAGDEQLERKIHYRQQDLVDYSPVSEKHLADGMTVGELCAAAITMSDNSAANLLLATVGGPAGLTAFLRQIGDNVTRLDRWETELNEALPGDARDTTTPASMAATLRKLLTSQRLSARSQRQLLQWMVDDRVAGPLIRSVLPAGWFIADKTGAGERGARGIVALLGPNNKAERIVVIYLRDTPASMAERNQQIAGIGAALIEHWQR
Sequence of Chromosomal, hyper-induced beta-lactamase enzyme (P00811 20-377): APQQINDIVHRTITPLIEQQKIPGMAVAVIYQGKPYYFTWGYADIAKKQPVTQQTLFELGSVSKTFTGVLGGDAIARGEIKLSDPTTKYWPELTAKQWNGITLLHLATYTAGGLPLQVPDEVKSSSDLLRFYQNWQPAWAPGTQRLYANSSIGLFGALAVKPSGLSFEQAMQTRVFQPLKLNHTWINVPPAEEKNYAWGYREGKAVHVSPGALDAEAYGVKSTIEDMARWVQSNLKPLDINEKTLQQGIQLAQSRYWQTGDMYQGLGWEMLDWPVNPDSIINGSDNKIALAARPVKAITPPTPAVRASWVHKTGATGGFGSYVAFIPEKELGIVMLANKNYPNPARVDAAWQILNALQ
T2 sequence (P05364 21-381): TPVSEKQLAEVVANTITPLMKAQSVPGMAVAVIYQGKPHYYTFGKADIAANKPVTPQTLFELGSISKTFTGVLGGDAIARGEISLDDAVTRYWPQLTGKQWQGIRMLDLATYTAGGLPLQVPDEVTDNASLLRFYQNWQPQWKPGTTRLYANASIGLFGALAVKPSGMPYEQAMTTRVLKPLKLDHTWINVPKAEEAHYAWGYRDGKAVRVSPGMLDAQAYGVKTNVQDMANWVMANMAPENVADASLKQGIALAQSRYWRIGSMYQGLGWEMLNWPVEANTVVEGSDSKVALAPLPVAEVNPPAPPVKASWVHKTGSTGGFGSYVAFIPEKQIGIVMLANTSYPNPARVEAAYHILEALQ

Compound: CO[C@@]1(NC(=O)Cc2cccs2)C(=O)N2C(C(=O)O)=C(COC(N)=O)CS[C@@H]21 [Cefoxi-tin, cefoxitin]
- RSAI (TEM-2 [1]): 60*
- RSAI (HMS-1 [2]): 60
- RSAI [3]: 0.01
- RSAI (PSE-3 [4]): 11.4
- RSAI (K10317): 350*
- RSAI (K1073): 1020
- RSAI (K17): 1.6
- nature of the binding to the enzyme (TEM-2 beta-lactamase): irreversible binding
- Score in 6-well visual test (TEM-1 [5]; [17]): ++
- Score in 6-well visual test (TEM-1 [5]; [18]): -
- Score in 6-well visual test (TEM-2 [6]; [17]): ++
- Score in 6-well visual test (TEM-2 [6]; [18]): -
- Score in 6-well visual test (SHV-1; [17]): ++
- Score in 6-well visual test (SHV-1; [18]): +
- Score in 6-well visual test (HMS-1 [7]; [17]): ++
- Score in 6-well visual test (HMS-1 [7]; [18]): -
- Score in 6-well visual test (OXA-1 [8]; [17]): ++
- Score in 6-well visual test (OXA-1 [8]; [18]): -
- Score in 6-well visual test (OXA-2; [17]): -
- Score in 6-well visual test (OXA-2; [18]): -
- Score in 6-well visual test (OXA-3 [9]; [17]): -
- Score in 6-well visual test (OXA-3 [9]; [18]): -
- Score in 6-well visual test (PSE-1; [17]): ++
- Score in 6-well visual test (PSE-1; [18]): -
- Score in 6-well visual test (PSE-2 [10]; [17]): +
- Score in 6-well visual test (PSE-2 [10]; [18]): -
- Score in 6-well visual test (PSE-3 [11]; [17]): +
- Score in 6-well visual test (PSE-3 [11]; [18]): -
- Score in 6-well visual test (PSE-4; [17]): +
- Score in 6-well visual test (PSE-4; [18]): -
- Score in 6-well visual test (Ps +AMP (Chromosomal); [17]): -
- Score in 6-well visual test (Ps +AMP (Chromosomal); [18]): -
- RSAI (OXA-3 [12]): 0.004
- RSAI (PSE-2 [13]): 24
- RSAI (TEM-1 [14]): 60*
- RSAI (OXA-1 [15]): 20
- RSAI [16]: 0.0008
